For data set [1] the following is noted: in vivo; cited from earlier work.

Consider four compounds from patent publication US20100261219A1, “TEST METHOD OF BIOAVAILABILITY AND BIOEQUIVALENCE FOR XENOBIOTICS USING GENETIC PROFILING” (priority 2008, published 2010).

Structures are written as SMILES. Like-named read-outs stand apart in the source and are kept apart here.

As to `CCN(CC)CCCC(C)Nc1ccnc2cc(Cl)ccc12` (stereo not shown) [Chloroquine], the t1/2 in data set [1] is 41 days.

For the compound `CC/C(=C(\c1ccccc1)c1ccc(OCCN(C)C)cc1)c1ccccc1` [Tamoxifen], the t1/2 in data set [1] was 8 days.

`CC/C(=C(\c1ccccc1)c1ccc(OCCNC)cc1)c1ccccc1` [demethyltamoxifen]: the t1/2 in data set [1] was 11 days. For `Cc1nc2n(c(=O)c1CCN1CCC(c3noc4cc(F)ccc34)CC1)CCCC2` [risperidone, Risperidone], the “Concentration of risperidone in blood plasma: influence of genotype” value (genotype of CYP2D6*10) is “significantly varied”. In addition, the “Concentration of risperidone in blood plasma” value is given as “capable of being measured” (participants with mutant type, 48 hours after dosing); “reduced below a measurable level” (participants with only wild type, 24 hours after dosing); “considerably low” (wild type participants compared to heterozygous or mutant type (FIG. 7-9)).
